In ChEMBL document CHEMBL1201862, “PubChem BioAssay data set” (2004):
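A five-concentration, 48-hour dose response in 96-well plates underlies each endpoint, interpolated linearly between surrounding concentrations. GI50 marks 50% less growth.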 Activity calls are given as the source filed them. Rule as the data show it: active = GI50 up to about 1.1 µM and inactive = higher.

Legend:
Experiment in all cases: NCI tumour cell line growth inhibition, 48 h
DU-145 = test system: DU-145
HCC 2998 = test system: HCC 2998
HCT-116 = test system: HCT-116
HOP-62 = test system: HOP-62
K562 = test system: K562
MDA-MB-231 = test system: MDA-MB-231
Malme-3M = test system: Malme-3M
NCI-H226 = test system: NCI-H226
NCI-H522 = test system: NCI-H522
OVCAR-3 = test system: OVCAR-3
PC-3 = test system: PC-3
SN12C = test system: SN12C
SNB-19 = test system: SNB-19
SNB-75 = test system: SNB-75
SR = test system: SR
TK-10 = test system: TK-10
UACC-62 = test system: UACC-62
MCF7 = test system: MCF7
MOLT-4 = test system: MOLT-4
RPMI-8226 = test system: RPMI-8226

Measured: GI50

Cc1cc2oc3c(ccc(=O)n3C)c(=O)c2c(C)c1Cl
inactive: DU-145 56.6 µM | HCC 2998 > 100 µM | HCT-116 34.9 µM | HOP-62 49.7 µM | K562 41.9 µM | MDA-MB-231 31.8 µM | Malme-3M 57.7 µM | NCI-H226 35.6 µM | NCI-H522 62.7 µM | OVCAR-3 42.3 µM | PC-3 37.4 µM | SN12C 48.6 µM | SNB-19 71.1 µM | SNB-75 > 100 µM | SR 38.1 µM | TK-10 > 100 µM | UACC-62 40.1 µM

CN(NC(=O)c1cccs1)C1=NCCCN1
inactive: HCC 2998 > 100 µM | HCT-116 > 100 µM | HOP-62 > 100 µM | K562 > 100 µM | MCF7 > 100 µM | MDA-MB-231 > 100 µM | MOLT-4 > 100 µM | Malme-3M > 100 µM | NCI-H226 > 100 µM | NCI-H522 > 100 µM | OVCAR-3 > 100 µM | PC-3 > 100 µM | RPMI-8226 > 100 µM | SNB-19 > 100 µM | SNB-75 > 100 µM | SR > 100 µM | TK-10 > 100 µM | UACC-62 > 100 µM

O=C(Nc1cccc2ccccc12)Nn1cnnc1
inactive: DU-145 > 100 µM | HCC 2998 > 100 µM | HCT-116 > 100 µM | HOP-62 > 100 µM | K562 > 100 µM | MCF7 > 100 µM | MOLT-4 > 100 µM | Malme-3M > 100 µM | NCI-H226 > 100 µM | NCI-H522 > 100 µM | OVCAR-3 > 100 µM | PC-3 > 100 µM | RPMI-8226 > 100 µM | SN12C > 100 µM | SNB-19 > 100 µM | SNB-75 27.6 µM | SR > 100 µM | TK-10 > 100 µM | UACC-62 > 100 µM

CCCn1cc2c3c(cccc31)C1C=C(C)CN(C)C1C2 (stereo not drawn)
inactive: HCC 2998 15.2 µM | HCT-116 10.4 µM | HOP-62 31.7 µM | K562 2.56 µM | MCF7 9.71 µM | MOLT-4 9.66 µM | Malme-3M 18.7 µM | NCI-H226 12.8 µM | NCI-H522 20.7 µM | OVCAR-3 20.4 µM | RPMI-8226 6.61 µM | SN12C 27.5 µM | SNB-19 27 µM | SNB-75 12 µM | UACC-62 23.4 µM

CCc1c(-c2ccccc2)[nH]c2ccccc2c1=O
inactive: DU-145 76.9 µM | HCC 2998 80.9 µM | HCT-116 41.3 µM | HOP-62 47.4 µM | K562 28.6 µM | MCF7 57.1 µM | MDA-MB-231 70.6 µM | MOLT-4 95.7 µM | Malme-3M 72.4 µM | NCI-H226 27.7 µM | OVCAR-3 54.1 µM | RPMI-8226 23.4 µM | SN12C > 100 µM | SNB-19 > 100 µM | SR 49.1 µM | TK-10 44.8 µM | UACC-62 28.8 µM

OCc1cn(C(c2ccccc2)(c2ccccc2)c2ccccc2)cn1
inactive: DU-145 > 100 µM | HCC 2998 > 100 µM | HCT-116 > 100 µM | HOP-62 44.5 µM | K562 > 100 µM | MDA-MB-231 > 100 µM | MOLT-4 > 100 µM | NCI-H226 > 100 µM | NCI-H522 > 100 µM | OVCAR-3 > 100 µM | PC-3 27.5 µM | RPMI-8226 > 100 µM | SN12C > 100 µM | SNB-19 > 100 µM | SNB-75 22.2 µM | SR > 100 µM | TK-10 > 100 µM
